In ChEMBL document CHEMBL3507680, “University of Dundee, Gates Library screen for HepG2 cell viability”:

Assay: Human HepG2 cell viability assay in 384 well format
Format: toxicity, cell-based
Set-up: dose 125 nL, time 70.5 hour; concentration not given beside the values
Settings: HepG2 cells, read-out: Inhibition

Row | SMILES | cytotoxicity at 70.5 h
1 | Cc1noc(-c2ccnc(Oc3ccccc3CN3CCCCC3)c2)n1 | -1.96%
2 | COCCCNC(=O)CCn1nc(C)c2ccccc21 | -2.16%
3 | Fc1ccc(-c2nnc(CN3CCOC(Cn4cncn4)C3)o2)cc1 (stereo not given) | -28.7%
4 | Cc1cc(CNCC2CCCN(C(=O)OC(C)(C)C)C2)no1 (stereo not given) | -6.15%
5 | NCC1CCCCN1C(=O)Cc1ccc(F)c(F)c1 (stereo not given) | -9.5%
6 | COc1ccc(NC(=O)c2cnc(N3CCN(C)CC3)nc2C)cc1 | -6.31%
7 | O=C(CN1CCCCC1Cn1cccn1)NC1CCN(C2CC2)CC1 (stereo not given) | -7.07%
8 | COCCOCC(=O)Nc1ccc(Br)cc1F | -11%
9 | Cc1cc(N2CCC(NC(=O)CCc3ccco3)CC2)nc(C)n1 | 11.4%
10 | Cc1nc(C)c(C(=O)N2CCc3nnc(C4CCCN4C)n3CC2)s1 (stereo not given) | -3.4%
11 | CCNc1cc2c(nn1)CCN(C(=O)c1ccsc1)C2 | -3.61%
12 | CCc1n[nH]c(C2CN(C(=O)c3cscn3)CCO2)n1 (stereo not given) | 43%
13 | CC(C)c1nnc(NC(=O)Cc2ccc(F)cc2)[nH]1 | -13.1%
14 | Cc1nonc1C1CCCN1C(=O)c1cc2n(n1)CCCN(C(C)C)C2 (stereo not given) | -6.2%
15 | CN1CCN(Cc2cnc3n2CCN(Cc2cccs2)C3)CC1 | 3.18%
16 | OC(COCc1ccccc1)CSc1nnc(C2CC2)n1C1CC1 (stereo not given) | 0.33%
17 | CNC(=O)N1CCCCC1CCNS(C)(=O)=O (stereo not given) | -13.3%
18 | CCc1ccc(C(=O)O)cc1S(=O)(=O)Nc1ccc2c(c1)OCCO2 | 4.02%
19 | COc1c(CNCc2cccnc2N2CCN(C)CC2)c(C)nn1C | 4%
20 | CCCS(=O)(=O)N1CCCC(c2nc(-c3ccccc3)c[nH]2)C1 (stereo not given) | -2.79%
21 | CCS(=O)(=O)c1ccccc1N1CCC(NC2CCCC2)CC1 | -2.15%
22 | N#Cc1cccc(S(=O)(=O)NC(=O)COCC(F)(F)F)c1 | 0.976%
23 | CS(=O)(=O)N1CCc2ccc(C(=O)N3CCn4ncnc4C3)cc21 | -1.85%

Row | SMILES | cytotoxicity at 70.5 h
24 | COc1ccc(-c2ccnc3nc(N4CCCC4)[nH]c(=O)c23)cc1OC | -9.78%
25 | Cn1nccc1-c1ncc(-c2cc(C(=O)O)n(CC3CC3)c2)cn1 | 6.58%
26 | O=C(CNC(=O)c1ccc2c(c1)CCC2)NCCNc1ncccn1 | -14.4%
27 | Cc1nc(C)c(C(=O)NCC(c2ccccc2Cl)N2CCOCC2)s1 (stereo not given) | 19.6%
28 | CN(Cc1noc(C2CC2)n1)C1CCCN(c2cccnn2)C1 (stereo not given) | 0.945%
29 | COCC1CN(C(=O)c2ccco2)Cc2nccn2C1 (stereo not given) | -9.63%
30 | Cc1cnc(Nc2nccnc2C2CCN(C)CC2)s1 | -19.6%
31 | CCCNC(=O)c1cc(Br)cc(S(=O)(=O)N2CCOCC2)c1F | -0.419%
32 | Cn1nc2c(cc1=O)CN(Cc1coc(-c3ccc(F)cc3)n1)CC2 | 14.8%
33 | CCCc1cc(C(=O)NC2CCCCNC2=O)[nH]n1 (stereo not given) | -5.95%
34 | Cc1cc(C)c(CNC(=O)N(C)Cc2cccc(C#N)c2)c(=O)[nH]1 | -1.75%
35 | CS(=O)(=O)N1CCCC1CS(=O)(=O)c1ccccc1 (stereo not given) | -11.6%
36 | CCC1c2cccn2CCN1S(=O)(=O)N1CCOCC1 (stereo not given) | 11.2%
37 | CN(C)[C@@H]1CCN(c2ncc(F)cn2)[C@H]1Cc1ccncc1 | -5.64%
38 | O=C1OC2(CCN(CC3CCCO3)CC2)CN1CCc1ccccc1 (stereo not given) | 2.25%
39 | CSC(C)(C)CNC(=O)NC1CCN(CC(F)F)CC1 | -1.88%
40 | Cc1cc(C)c2[nH]c(=O)c(CN3CCCC(O)(CO)C3)cc2c1 (stereo not given) | -13.5%
41 | COc1ccc2c(c1)c(C(=O)Nc1n[nH]c(C(C)C)n1)cn2C(C)C | 40.7%
42 | COC(=O)CC1C(=O)NCCN1c1nc2c(s1)c(C)nn2C (stereo not given) | 5.02%
43 | O=C(CCCn1cccn1)N1CCCC(n2cncn2)C1 (stereo not given) | 1.52%
44 | COc1c2ccc(C(=O)NCCCn3ncccc3=O)cc2nn1C | 13.9%
45 | Cc1cc(NC(=O)N(CC2CCOC2)C2CC2)no1 (stereo not given) | -11.9%
46 | CCC(=O)c1ccc(Br)cc1NN1c2cc(Br)ccc2C(=O)C1(C)OC (stereo not given) | 13.3%

Row | SMILES | cytotoxicity at 70.5 h
47 | CN1CCN(C(=O)c2cc(-c3ccco3)cs2)CC1 | -20.5%
48 | Cc1cccnc1NC(=O)c1ccc(F)c(S(=O)(=O)N2CCC2)c1 | -19.3%
49 | Cc1noc([C@@H]2C[C@H]3CN(C(=O)C4CCN(C)CC4)C[C@H]3O2)n1 | -11.3%
50 | CC(=O)N1CCCN(C(=O)CCc2c(C)nc3ccnn3c2C)CC1 | -15.3%
51 | COc1ccc(-c2noc(CN3CCc4cncnc4C3)n2)cc1 | -8.79%
52 | O=C(c1cc2c([nH]c1=O)CCC2)N1CCCC1c1ccccn1 (stereo not given) | -2.83%
53 | CC(Oc1ccccc1C(F)(F)F)C(=O)NCCNC(=O)C1CC1 (stereo not given) | -6.09%
54 | Cc1ccc(O)c(CNCC(C)c2nc3ccccc3o2)n1 (stereo not given) | -4.08%
55 | O=C(NCC1CC1)C1CN(C(=O)Nc2ccccc2)CC12CCOCC2 (stereo not given) | -5.6%
56 | CN1CCN(c2ncnc3c2c(C(=O)NC2CC2)c2ccccn23)CC1 | 5.64%
57 | Cc1cc(=O)n2ncnc2n1CC(O)c1ccc(F)cc1F (stereo not given) | -16.6%
58 | CCc1nn(C)c2[nH]nc(NC(=O)c3cccnc3OCC(C)C)c12 | -90.4%
59 | O=C(Nc1ccccc1)c1cc2n(n1)CCCN(C(=O)c1ccc[nH]1)C2 | 14.9%
60 | Cc1nn(C)c(C)c1NC(=O)CN1CCCC1c1noc(C(C)C)n1 (stereo not given) | -5%
61 | CNC(=O)C1Cc2ccccc2CN1CCC#N (stereo not given) | 4.8%
62 | Cc1nc2c(c(N[C@H](C(N)=O)C(C)C)n1)Cc1ccccc1OC2 | -11.2%
63 | Clc1ccccc1-c1nnc(CSCCN2CCOCC2)o1 | -2.19%
64 | Cc1cc(C(=O)N2CCCCC2c2nc(C)cs2)[nH]n1 (stereo not given) | -7.87%
65 | Cc1ccccc1-c1cncc(C2CCN(S(=O)(=O)N(C)C)CC2)n1 | -2.74%
66 | COC(=O)C(C)(C)NC(=O)C1CC(=O)N(CC(F)(F)F)C1 (stereo not given) | 0.904%
67 | CCN1CCCC(c2nc(O)c3cc(C)ccc3n2)C1 (stereo not given) | -8.23%
68 | c1cnc2c(c1)CN(C1CCOC1)CCN2CC1CC1 (stereo not given) | -8.62%
69 | Cc1nc(CC(=O)N2CCc3nnc(N(C)C)cc3C2)cs1 | 0.153%

Row | SMILES | cytotoxicity at 70.5 h
70 | N#Cc1cccc(OCCCN2CCN(C(=O)c3ccoc3)CC2)c1 | -10%
71 | CCO[C@@H]1CO[C@@]2(CCN(Cc3ccc4c(c3)OCO4)C2)C1 | -17.3%
72 | N#Cc1ccc(NC2CCN(CC(F)F)CC2)c(F)c1 | -15.5%
73 | COc1ccc(C(=O)C2CCCN(CCCn3cccn3)C2)c(OC)c1 (stereo not given) | 20.9%
74 | CC(=O)N1CCCC(c2ccc(Nc3nc(C)cc(C)n3)cn2)C1 (stereo not given) | -12%
75 | CC(CNC(=O)c1cccc(-n2cccn2)n1)Cn1ccnc1 (stereo not given) | -2.98%
76 | Cc1ccc(CCNC(=O)Cn2nc(C)n(Cc3ccccc3)c2=O)o1 | 19.8%
77 | COc1cccc2c3c(c(=O)[nH]c12)CCO3 | 3.58%
78 | CCS(=O)(=O)N1CCC2(CC(=O)N(c3cnn(C)c3)C2)C1 (stereo not given) | -2.5%
79 | Cc1cc(CNc2ccc(C(=O)N3CCCC(C)C3)cc2C)no1 (stereo not given) | -16.5%
80 | CCn1nc(C)c2ccn(CC(=O)NC(C)C)c(=O)c21 | -2.74%
81 | COc1cccc(C2CC(=O)Nc3nc(N4CCCCC4)sc32)c1OC (stereo not given) | -6.7%
82 | COc1c(C2CCCN2CC(=O)Nc2nccs2)c(C)nn1C (stereo not given) | -2.85%
83 | CCc1ccccc1OCCCN(C)C(=O)C1CCCN1C(N)=O (stereo not given) | -8.96%
84 | O=C(Cc1ccon1)N(CCC(F)(F)F)C1CCCC1 | -3.19%
85 | CCC(C(=O)NC1CCCC1)n1ccc2ncccc2c1=O (stereo not given) | -16.4%
86 | COC(=O)c1cc(C(=O)N2CCOCC2(C)C)n(-c2ccccc2)n1 | -0.593%
87 | O=C(Cc1ccsc1)N1CCN(CCOc2ccccc2)CC1 | -5.67%
88 | O=S(=O)(NCc1ccccc1)N1CCCN(c2ccncc2)CC1 | 28.7%
89 | O=C1CN(c2ccc(CNC(=O)c3ccc[nH]3)cc2F)CCN1 | 1.47%
90 | C=Cn1ncc(CN2C[C@@H]3CCCN3C[C@H]2Cc2ccccc2)c1C | 14.6%
91 | CN(C)c1ncc(CN2CCCC(Nc3ccc4c(c3)OCCO4)C2)s1 (stereo not given) | -12.3%
92 | Cn1ncc(NCc2cc(F)cc(F)c2)c(Cl)c1=O | -7.18%

Row | SMILES | cytotoxicity at 70.5 h
93 | COc1ccc(-c2ccccc2CCN)c(OC)c1OC | 6.2%
94 | COc1cccc(COCC(=O)N2CCCC2Cn2cccn2)c1 (stereo not given) | -11.8%
95 | CC(NC(=O)N1CCC(n2cncn2)CC1)c1ccc(F)cc1 (stereo not given) | -6.99%
96 | CN(C)C(=O)c1cc(-c2ccncc2)[nH]n1 | -4.19%
97 | CCc1ncc(C(=O)NCCN2CCNC2=O)cn1 | -5.68%
98 | Cc1cc(-c2cnc(N3CCC(O)CC3)nc2C(C)C)on1 | 20.4%
99 | CCc1nn(C)c(Cl)c1CN1CCN(c2nc(C(N)=O)cs2)CC1 | -3.53%
100 | Cc1cnc(NC(=O)c2csc(NC3CCCC3)n2)s1 | 43.8%
101 | CCc1nccn1C1CCCN(C(=O)CCOCC(F)(F)F)C1 (stereo not given) | -14%
102 | COc1ccccc1[C@@H]1CN(CC2CCC2)C[C@H]1C(=O)O | -5.88%
103 | CCN(Cc1nc2c(cnn2C)c(=O)[nH]1)c1cccc(C)c1C | -0.49%
104 | CO[C@H]1CCN(C(=O)c2cc(C)on2)C[C@@H]1Cc1ccccc1 | 5.73%
105 | O=S(=O)(NCc1ccnc(-n2ccnc2)c1)c1cncc(Cl)c1 | -0.226%
106 | CCc1nnc(CS(=O)(=O)c2ccc(C)c(C)c2)n1C | 26.2%
107 | CCC1CN(CC(=O)NC2(C#N)CCCC2)CCN1CCOC (stereo not given) | -6.19%
108 | CCOc1ccc(NC(=O)NCCS(=O)(=O)CC)cc1C | -8.96%
109 | CC[C@@H](c1ccccc1)n1c(CN)n[nH]c1=O | -13.5%
110 | CC(O)CN1CCN(C(=O)c2ccc(N(C)C)nc2)CC1 (stereo not given) | 12%
111 | O=C1N(Cc2cccc(F)c2)CCC12CCN(c1ccccn1)CC2 | -8.45%
112 | CCc1ccc(C(=O)N(CC)Cc2ccoc2)cc1S(C)(=O)=O | -13.3%
113 | COc1cccc(CNC(=O)Nc2ccc3[nH]nnc3c2)c1OC | -9.41%
114 | Cc1c(F)cccc1S(=O)(=O)Nc1noc(C(C)C)n1 | -7.44%
115 | O=C(NCCO)C1(Cc2ccccc2-c2cccnc2)CCOCC1 | -10.7%
